Source: the supplement of paper PMC4862054
Several values for one entry are separate records, joined by “and”; a condition that tells them apart may be missing. Equal values may be shown once.

How the values were obtained:
Conditions in all cases: incubation time: 72 h
[1] = system: MDA-MB-453; assay: normalised viability (% of control), CellTiter-Blue; higher = more viable cells (about 100 = DMSO control)
Description: (§1)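 DSRT, CellTiter-Blue viability, 72 h incubation. Signal is normalised to DMSO and benzethonium chloride controls. Value is the normalised response at dose 3.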

[2] = system: MDA-MB-231; assay: as above
Description: as §1

[3] = system: HCC1937; assay: as above
Description: as §1

[4] = system: SK-BR-3; assay: as above
Description: as §1

[5] = system: BT-549; assay: as above
Description: as §1

[6] = system: MFM-223; assay: as above
Description: as §1

[7] = system: BT-474; assay: as above
Description: as §1

[8] = system: DU-4475; assay: as above
Description: as §1

[9] = system: MDA-MB-453; assay: drug sensitivity score (DSS), CellTiter-Glo (DSS (AUC-based score)); higher = stronger drug effect (viability inhibition or cytotoxicity); extreme values may be limits of the assay
How it was run: (§2)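 The area under the fitted dose-response curve was used to calculate the drug sensitivity score. Cells from breast cancer lines were incubated for 72 h in 384-well plates with compound at 5 concentrations spaced 10-fold over a 10,000-fold range specific to each compound. Plates were read for CellTox Green and then CellTiter-Glo, and normalised to 0.1 % DMSO and a positive kill control.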

[10] = system: MDA-MB-436; assay: as above
How it was run: as §2

[11] = system: MDA-MB-231; assay: as above
How it was run: as §2

[12] = system: HCC1937; assay: as above
How it was run: as §2

[13] = system: MDA-MB-468; assay: as above
How it was run: as §2

[14] = system: SK-BR-3; assay: as above
How it was run: as §2

[15] = system: CAL-85-1; assay: as above
How it was run: as §2

[16] = system: HCC1599; assay: as above
How it was run: as §2

[17] = system: BT-549; assay: as above
How it was run: as §2

[18] = system: HCC1143; assay: as above
How it was run: as §2

[19] = system: MFM-223; assay: as above
How it was run: as §2

[20] = system: BT-474; assay: as above
How it was run: as §2

[21] = system: CAL-148; assay: as above
How it was run: as §2

[22] = system: HDQ-P1; assay: as above
How it was run: as §2

[23] = system: Hs578T; assay: as above
How it was run: as §2

[24] = system: DU-4475; assay: as above
How it was run: as §2

[25] = system: CAL-51; assay: as above
How it was run: as §2

[26] = system: CAL-120; assay: as above
How it was run: as §2

[27] = system: MCF-10A; assay: as above
How it was run: as §2

| SMILES | normalised viability ([1]; 0.1 nM) [%] | normalised viability ([2]; 100 nM) [%] | normalised viability ([3]; 100 nM) [%] | normalised viability ([4]; 100 nM) [%] | normalised viability ([5]; 1 nM) [%] | normalised viability ([6]; 1 nM) [%] | normalised viability ([7]; 100 nM) [%] | normalised viability ([8]; 0.1 nM) [%] | drug sensitivity score [9] | drug sensitivity score [10] | drug sensitivity score [11] | drug sensitivity score [12] | drug sensitivity score [13] | drug sensitivity score [14] | drug sensitivity score [15] | drug sensitivity score [16] | drug sensitivity score [17] | drug sensitivity score [18] | drug sensitivity score [19] | drug sensitivity score [20] | drug sensitivity score [21] | drug sensitivity score [22] | drug sensitivity score [23] | drug sensitivity score [24] | drug sensitivity score [25] | drug sensitivity score [26] | drug sensitivity score [27] | normalised viability ([1]; 10 nM) [%] | normalised viability ([5]; 100 nM) [%] | normalised viability ([6]; 100 nM) [%] | normalised viability ([8]; 10 nM) [%] | normalised viability ([1]; 1 nM) | normalised viability ([2]; 10 nM) | normalised viability ([3]; 10 nM) | normalised viability ([4]; 10 nM) | normalised viability ([5]; 10 nM) | normalised viability ([6]; 10 nM) | normalised viability ([7]; 10 nM) | normalised viability ([8]; 1 nM) |
| --- | --- | --- | --- | --- | --- | --- | --- | --- | --- | --- | --- | --- | --- | --- | --- | --- | --- | --- | --- | --- | --- | --- | --- | --- | --- | --- | --- | --- | --- | --- | --- | --- | --- | --- | --- | --- | --- | --- | --- |
| CCC/C=C/C=C/C(=O)O[C@H]1/C(=C/C(=O)OC)C[C@H]2C[C@H]([C@@H](C)O)OC(=O)C[C@H](O)C[C@@H]3C[C@H](OC(C)=O)C(C)(C)[C@](O)(C[C@@H]4C/C(=C/C(=O)OC)C[C@H](/C=C/C(C)(C)[C@]1(O)O2)O4)O3 [Bryostatin 1] | 99 | 97.2 | 103 | 84.1 | 94.8 | 98.7 | 102 | 92.1 | 0 | 0 | 0 | 0 | 0 | 10.8 | 0 | 0 | 0.294 | 0 | 0 | 1.75 | 0 | 1.62 | 4.68 | 0 | 6.93 | 0 | 0 |  |  |  |  |  |  |  |  |  |  |  |  |
| COc1ccc(-c2cc3c(C)nc(N)nc3n([C@H]3CC[C@H](OCCO)CC3)c2=O)cn1 |  | 63.2 | 65.8 | 32.9 |  |  | 67.8 |  | 21.9 | 14.4 | 18.4 | 15.1 | 18.8 | 22.1 | 18.5 | 9.17 | 18.7 | 17.2 | 17 | 16.4 | 17.1 | 18.7 | 18 | 12.4 | 22.6 | 17.1 | 18.3 | 86.2 | 66.9 | 68.8 | 103 |  |  |  |  |  |  |  |  |
| O=S(=O)(c1cccc2cnccc12)N1CCCNCC1 [Fasudil] |  | 96 | 91.7 | 86.2 |  |  | 117 |  | 1.2 | 0 | 0 | 0 | 0 | 0 | 0 | 0 | 1.25 | 0 | 0 | 0 | 0 | 0 | 0.0914 | 0.0897 | 0 | 0 | 0 | 103 | 95.6 | 93.6 | 107 |  |  |  |  |  |  |  |  |
| CCN(CC)CCNC(=O)c1c(C)[nH]c(/C=C2\C(=O)Nc3ccc(F)cc32)c1C [Sunitinib] |  |  |  |  |  |  |  |  | 0 | 0 | 0 | 0 | 0 | 0 | 0 | 0 | 0 | 0 | 0 | 0 | 0 | 0 | 0 | 0 | 0 | 0 | 0 |  |  |  |  | 89.4% and 98.1% | 84.8% and 87.2% | 98.6% and 91% | 85.7% and 80.3% | 96.5% and 73.3% | 93.5% and 87.9% | 102% and 99.1% | 104% and 92% |
